Source: patent US9243036B2, “Anti-microbial activity of synthetic peptides” (THE UNITED STATES OF AMERICA, as represented by the …, priority 2012, dated 2016)
Entries after “also recorded” stand apart in the source; their conditions may differ. Residues, ends and D or L forms follow the SMILES beside them.

Tests used:
P. aeruginosa cells = test: Qdot-based fluorometry binding assay; details: EC5 50 μg/ml
Experimental: (§1) The assay was carried out as described earlier (21,24). Bacterial cell suspensions at a concentration of 10^3 CFU were incubated with EC5 (50 μg/ml) in an eppendorf tube at room temperature for 60 min. Following three washes with 1×PBS pH 7.4 the pellet was resuspended in […] of 1:10,000 dilution of streptavidin-conjugated Q dots (QD 605) solution (Invitrogen, Gaithersburg, Md.). The fluorometric counts were measured using SYNERGY 4™ BioTek micro plate reader (BioTek Instruments, Winooski, Vt.).
(§2) Binding of the peptide to the bacteria was detected using Qdot-nanocrystal cores conjugated to streptavidin. Analysis of the bacterial suspension binding to the peptide was performed in a micro-well plate using a fluorescence plate reader (SYNERGY 4™, Biotek, USA). Excitation was set to a spectral range of 360-485 nm and emission was at 605 nm. […] The analysis also confirmed that EC5 binds to P. aeruginosa cells.

E. coli [1] = test: Qdot-based fluorometry binding assay; details: EC5 50 μg/ml; p<0.0001
Experimental: as §1, §2

P. aeruginosa [2] = test: Time-kill kinetics; assay type: cell-based; details: P. aeruginosa ATCC 12121; 27853
Experimental: (§3) In vitro anti-bacterial activity of EC5. The test microorganisms mentioned earlier in the experimental procedures were used to evaluate the bactericidal activity of EC5 peptide. The minimum inhibitory concentrations (MICs) of the peptide were determined by standard dilution assay as recommended by Clinical and Laboratory Standard Institutes (CLSI) guidelines (Azad, M. A., et al., (2011) Antimicrob. Agents Chemother. 55, 2137-2145). Bacteria were grown to mid-logarithmic phase in cation-supplemented Mueller-Hinton broth (MHB) (Becton Dickinson, Sparks, Md.) on an orbital shaker (37° C.) and diluted to a 0.5 McFarland standard to a final volume of 1 ml. Decreasing concentrations of the peptide were incubated with the microorganisms. Results were recorded by visual inspection after 24 h of incubation at 37° C. Assay was repeated three separate times to ensure reproducibility. […] EC5 concentrations 0x, 0.5x, 1x, and 2×MIC were incubated with logarithmic phase of bacteria of approximately 10^5 CFU/ml in an orbital shaker for 48 h at 37° C. Samples were drawn and plated on NA plates. Polymyxin B was used as a positive control and peptide with no anti-bacterial activity from our previous studies was used as a negative control.

E. coli [3] = test: Time-kill kinetics; assay type: cell-based
Experimental: as §3

S. aureus [4] = test: Cytoplasmic membrane depolarization assay (diSC3-5); assay type: cell-based; details: EC5 64 μg/ml; after 45 min
Experimental: Membrane depolarization activity (Δψ) of the peptide was determined with intact E. coli and P. aeruginosa cells and the membrane potential-sensitive fluorescent dye, 3,3′-dipropylthiadicarbocyanine Iodide (diSC (3)5) (Invitrogen, Oregon), according to described methods (Sims, P. J., et al (1974) Biochemistry 13, 3315-3330). Briefly, bacterial cells of mid-logarithmic phase were harvested by centrifugation and washed twice with HEPES buffer (5 mM HEPES, 5 mM glucose, pH 7.6). The cells were suspended in the same buffer to an OD of 0.05. The cell suspension was incubated with […] diSC (3)5 until maximal uptake of the dye. 100 mM KCl was added to equilibrate the cytoplasmic and external potassium ion concentration of peptide, and fluorescence was monitored at an excitation wavelength of 622 nm and an emission wavelength of 670 nm. […]
Cytoplasmic depolarization assay(Δψ) was performed using the membrane potential sensitive dye 3,3′-dipropylthiadicarbocyanine iodide (diSC3-5) (Zang, L. et al., (2001) J. Biol. Chem. 276, 35714-35722). This dye can cross the outer membrane of the bacterial cell and become concentrated in the cytoplasmic membrane and thereby it self-quenches its own fluorescence. Upon addition of a membrane-permeabilizing agent the dye is released with consequent increase in the fluorescence. […]

P. aeruginosa [5] = test: Anti-bacterial activity in spiked platelets; assay type: cell-based; details: EC5 25 and 12.5 μg/ml; 2 h
Experimental: (§4) The anti-bacterial activity of the peptide in the presence of homologous plasma and platelets were assessed. Platelet Concentrates (PCs) in bags were obtained and stored at room temperature as described earlier (Mohan, K. V. et al., (2010) Transfusion 50, 166-173). Plasma was isolated from the PC bag by collecting 25 ml of PCs and subjecting the sample to a low speed centrifugation step to separate PLT-rich plasma from plasma. For assays log phase cultures of bacteria grown in Luria-Bertani (LB) broth were centrifuged at 3000×g and suspended in 1×PBS pH7.4. Bacterial titers were estimated by measuring the optical density (OD) and microscopy. Approximately 10^5 CFU/ml of each bacterial strain was spiked into 0.1 ml of plasma or platelets and incubated with peptide at concentrations ranging from 50 to 0 μg/ml. Incubation was carried out at room temperature for 2 h on a shaker. At the end of 2-h exposure period, a fixed volume of the suspension was plated on NA plates, and incubating at 37° C. for 18 to 24 h. Bactericidal activity was measured by log-reduction by viable bacteria.

S. epidermidis = test: Anti-bacterial activity in spiked platelets; assay type: cell-based; details: even at high concentrations
Experimental: as §4

E. coli [6] = test: Anti-bacterial activity in spiked platelets; assay type: cell-based; details: 2 h
Experimental: as §4

S. aureus [7] = test: Anti-bacterial activity in spiked platelets; assay type: cell-based; details: even at high concentrations
Experimental: as §4

## CC[C@H](C)[C@H](NC(=O)[C@H](CCCCN)NC(=O)[C@H](CCCNC(=N)N)NC(=O)[C@H](Cc1ccccc1)NC(=O)[C@H](CC(C)C)NC(=O)[C@H](CC(C)C)NC(=O)[C@@H](N)CCCNC(=N)N)C(=O)N[C@@H](CCCNC(=N)N)C(=O)N[C@@H](CCCNC(=N)N)C(=O)N[C@@H](CC(C)C)C(=O)N[C@@H](CCCCN)C(=O)N[C@@H](CCCNC(=N)N)C(=O)O [EC5, RLLFRKIRRLKR] (H-RLLFRKIRRLKR-OH; N-terminus and C-terminus assumed)
P. aeruginosa cells
  binding to P. aeruginosa cells (fluorometric counts): binds
E. coli [1]
  binding to E. coli (fluorometric counts): able to bind
P. aeruginosa [2]
  regrowth: no regrowth until 24 hrs
  time to complete inhibition: 5 min
E. coli [3]; 4 μg/ml, around 45 min of exposure
  reduction of E. coli: 2-3 log10 CFU/ml
E. coli [3]; E. coli ATCC 700928, 25922
  regrowth: no regrowth until 24 hrs
  time to complete inhibition: 5 min
E. coli [3]; MBC concentration of 8 μg/ml
  killing of E. coli: complete killing
S. aureus [4]
  release of diSC3-5 from S. aureus: no trace of release
P. aeruginosa [5]
  reduction of P. aeruginosa in platelets: 4 log10 CFU/ml
S. epidermidis
  reduction of S. epidermidis in platelets: No significant reduction
E. coli [6]; EC5 12.5 μg/ml
  reduction of E. coli in platelets: 4.5 log10 CFU/ml
E. coli [6]; EC5 50 and 25 μg/ml
  E. coli colonies in platelets: no detectable E. coli colonies; also recorded: complete inhibition
S. aureus [7]
  reduction of S. aureus in platelets: No significant reduction
